Results published in patent publication US9029147B2, “Methods and compositions for enhanced differentiation from embryonic stem cells” (Massachusetts Institute of Technology, priority 2007, dated 2015).
Where “and” joins values, the source holds several entries; their conditions need not be identical. Identical values can stand only once.

How the values were obtained:
Format in all cases: cell-based, mouse
R1 ES cells = assay: Fraction of MF-20 positive cells (cardiomyocytes) by flow cytometry, alternate differentiation protocol; conditions: With 0.2 mM ascorbic acid
Source text: (§1) • Undifferentiated ES cell culture. J1 and R1 ES cells were obtained from ATCC (SCRC 1010, SCRC 1036, Manassaas, Va.), expanded on Mitomycin-C treated MEF cells, and frozen into vials following ATCC protocols. Vials were thawed into undifferentiated ES cell maintenance medium (described in Table 1) containing supplemental leukaemia inhibitory factor (LIF) and plated at a density of about 5×10^4 cell/cm^2 on 25 cm^2 cell culture flasks (353109, Becton Dickinson, Franklin Lakes, N.J.) that were treated for 30 min with a sterile 0.1% (w/v) solution of gelatine (G-2500, Sigma-Aldrich, St. Louis, Mo.) in tissue culture water (WFI, 25-055-CM, Mediatech, Herndon, Va.). Medium (Table 1) was exchanged daily, and cells were detached with 0.25% trypsin (30-2101, ATCC) every two days. Split fractions were chosen so that cells were plated at approximately 1.2^[…] cells/cm^2. Cells were used for differentiation experiments 4-6 days after thawing the cell vials. • EB formation. […] The concentration of cells with intact membranes was determined using trypan blue cell counts, and cells were diluted to a concentration of 2.5×10^4 membrane-intact cells/ml. […] of this cell suspension were aliquoted onto the inside surface of the lids of 10×10 cm Petri dishes (351112, Becton Dickinson) using an 8-channel pipette. The lids were inverted and placed onto the bottoms of the dishes, which were filled with 15 ml of a pre-warmed (37° C.) solution containing 75% (v/v) Dulbecco's phosphate buffered saline (DPBS, 21-030-CM, Mediatech), 25% water, and 0.002% (w/v) gelatine. • EB transfer. […], the resulting EBs were manually pipetted off of the Petri dish lid using wide-orifice pipette tips (3532, Molecular BioProducts, San Diego, Calif.) and placed into the wells of custom-made 24-well culture dish, which had the plastic bottom replaced with fibronectin-coated silicone rubber membrane. 30 EBs were placed into each well, and the medium was mixed by pipetting to distribute the EBs uniformly across the plate bottom. • Culture of attached EBs. The EBs attached and spread within one day of transfer to the silicone rubber membrane-based dish. The medium was removed from all of the wells 2 days after EB transfer and was replaced with 1 ml of fresh ES cell differentiation medium. On the following day, the medium was removed and replaced with 1 ml serum-free differentiation medium (Table 2). Medium continued to be exchanged daily with the serum-free differentiation medium until the end of the experiment. • Cell collection for nuclei counting and flow cytometry. […]

J1 mES cells = assay: as above
Source text: as §1

mES cells [1] = assay: Cardiomyocyte generation with 0 or 0.2 mM ascorbic acid, MF-20 immunostaining counted by flow cytometer; conditions: 10 days
Description: Low Oxygen and Ascorbic Acid Act Synergistically to Promote Cardiomyocyte Generation. mES cells were differentiated for 10 days at 142, 36, and 7 mmHg pO2 and with either 0 or 0.2 mM ascorbic acid. Cardiomyocyte generation was measured by counting fixed cells immunostained for sacromeric myosin heavy chain using the MF-20 with a flow cytometer. […] (FIGS. 10 and 11.).

mES cells [2] = assay: Adhesion of mES cells to polystyrene and silicone rubber, native or with adsorbed gelatin or fibronectin; conditions: after a day in culture
Description: FIG. 23. Adhesion of ES cells to polystyrene and silicone rubber. Adhesion of mES cells to polystyrene and silicone rubber in their native states or with 0.1% gelatin in water or […] fibronectin in PBS adsorbed onto the surface for 24 hr prior to cell addition. Below each pair of micrographs is quantitative data for the total, attached, and suspension cell numbers. Results shown are mean±SD for three wells in a 24 well plate seeded with 2×10^5 cell 26 hr prior to performing the cell counts.
PSS solution (polyanion) was added to an untreated plate and incubated for 1 hr, followed by a 10 min wash with DPBS, a 1 hr incubation with PEI (polycation), and a 10 min wash with DPBS. Two additional incubations with both PSS and PEI (30 min each) with intervening washes (10 min) were done to build a (PSS-PEI)3 PEM. To this PEM an additional 3 layers each of type B gelatin (polyanion) and PDL (polycation) were formed, using 30 min incubations with the polyelectrolyte solution, and 10 min washes with DPBS. The final PEM structure was thus (PSS-PEI)3-(type B gelatin—PDL)3. […] Attached nuclei were counted by adding 0.5 ml of lysis solution to the well and incubating for 10 min. […] The membrane-intact cell concentration was determined using trypan blue cell counts, and cells were diluted to a concentration of 25,000 membrane intact cells/ml. […]

Compound	Fraction of MF-20 positive cells (R1 ES cells; pO2gas 7, 4 days hanging drop EBs then 7 days serum free ITS medium)	Fraction of MF-20 positive cells (R1 ES cells; pO2gas 36, 4 days hanging drop EBs then 7 days serum free ITS medium)	Fraction of MF-20 positive cells (J1 mES cells; With 0.2 mM ascorbic acid, pO2gas 36, J1, 4 days hanging drop EBs then 7 days serum free ITS medium)	Change in fraction of cardiomyocytes when ascorbic acid was included in the culture medium (J1 mES cells; all of the oxygen conditions tested, P=0.0005, J1 and R1 experiments of Table 4)	Effect on cardiomyocyte generation in combination with low pO2 (mES cells [1]; 0.2 mM combined with 36 mmHg pO2)	Effect on cardiomyocyte generation (mES cells [1]; 0.2 mM vs 0 mM, at all pO2 (142, 36, 7 mmHg))	Fraction of cells attached (mES cells [2])
O=C1O[C@H]([C@@H](O)CO)C(O)=C1O [Ascorbic Acid, L-ascorbic acid]	4	22	18 and 25 and 16	highly significant increase	a larger increase in cardiomyocytes than with either method alone	increased cardiomyocyte generation	–
fibronectin: protein adsorbed onto silicone rubber to promote cell adhesion (F1141, Sigma-Aldrich)	–	–	–	–	–	–	99%
